Experimental findings from patent US11634442B2, “Methods for the purification of L-glufosinate” (BASF SE, priority 2017, dated 2023) are described below.

The series is described as follows: Solid form stability on storage over desiccant (XRPD, ion chromatography). How it is done: X-ray Power Diffraction (XRPD), Reflection Mode: XRPD patterns were collected with a PANalytical X'Pert PRO MPD diffractometer using an incident beam of Cu Kα radiation produced using a long, fine-focus source and a nickel filter. The diffractometer was configured using the symmetric Bragg-Brentano geometry. […] A specimen of the sample was prepared as a thin, circular layer centered on a silicon zero-background substrate. Antiscatter slits (SS) were used to minimize the background generated by air. Soller slits for the incident and diffracted beams were used to minimize broadening from axial divergence. Diffraction patterns were collected using a scanning position-sensitive detector (X'Celerator) located 240 mm from the sample and Data Collector software v. 2.2b.
XRPD, Transmission Mode: XRPD patterns were collected with a PANalytical X'Pert PRO MPD diffractometer using an incident beam of Cu radiation produced using an Optix long, fine-focus source. An elliptically graded multilayer mirror was used to focus Cu Kα X-rays through the specimen and onto the detector. […] A specimen of the sample was sandwiched between 3-μm-thick films and analyzed in transmission geometry. A beam-stop, short antiscatter extension, antiscatter knife edge were used to minimize the background generated by air. Soller slits for the incident and diffracted beams were used to minimize broadening from axial divergence. Diffraction patterns were collected using a scanning position-sensitive detector (X'Celerator) located 240 mm from the specimen and Data Collector software v. 2.2b.
Form B was characterized by ^1H NMR, IC, DSC, and TGA.

As to `CP(=O)(O)CC[C@H](N)C(=O)O` [Form B], the “change in XRPD pattern upon storage over desiccant for 47 days” value (47 days over desiccant) is given as “No significant changes”.

Turning to `CP(=O)(O)CC[C@H](N)C(=O)O.N` [Form A], where the note is “Form A from 93/7 v/v methanol/water slurry, storage time not given”, the “form change by XRPD upon storage over desiccant” value is “converted to Form B with minor additional peaks”. Also, the “overall assessment of form stability” value (prone to conversion to Form B) was “metastable”.

`CP(=O)(O)CC[C@H](N)C(=O)O.N` [Form C]: under “sample of Form C with minor Form A, 6.3 wt % initially”, the “ammonium content by IC after storage under desiccant for 36 days” value came to 3.2 wt %. For the same compound, the “form change by XRPD after storage under desiccant for 36 days” value (sample of Form C with minor Form A, 36 days under desiccant) is “conversion to Form B with minor Form A and a few minor additional peaks”.

Take `CP(=O)(O)CC[C@H](N)C(=O)O` [Form D]: the “change in XRPD pattern upon storage over desiccant” value (sample of Form D+minor Form A, storage time not given) is listed as “No significant changes”.
